Laboratory results from patent publication US20080287396A1, “Phosphonated Fluoroquinolones, Antibacterial Analogs Thereof, and Methods for the Prevention and Treatment of Bone and Joint Infections” (TARGANTA THERAPEUTICA INC., priority 2005, published 2008).
“Also recorded” adds a separate entry of the source.

Experiments:
[1] = Regeneration of drug from bone powder-bound prodrug; format: in vitro ADME; conditions: PBS vs serum
S. aureus ATCC 13709 = assay: Prophylactic model of bone infection in rats; format: in vivo, rat; conditions: for prophylactic effect in rat model of bone infection, in words: Table 4 and FIGS. 6-8, doses as in Table 4
Outline: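 Female CD rats (n=5/group) given intra-tibial 5% sodium morrhuate then S. aureus (ca. 5×10^5 CFU/rat), hole sealed with dental cement. Prodrugs given as single IV bolus in 0.9% saline at various times before infection; parent at molar equivalent dose. Tibiae harvested 24 h postinfection; Log CFU/g bone, detection limit 2 Log CFU/g.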

Row | Compound | effect of the medium (presence or absence of serum) on regeneration rate [1] | bacterial titer compared with untreated group (S. aureus ATCC 13709; 17.3 mg/Kg IV 48 h prior to infection (FIG. 8)) | Measured bacterial titer (Log CFU/g of bone) Test compound (S. aureus ATCC 13709; 20 mg/kg IV, 3 days prior to infection) | prophylactic effect in rat model of bone infection, in words (S. aureus ATCC 13709) | bacterial titer compared with untreated group (S. aureus ATCC 13709; 15.8 mg/kg IV 5, 10, 15 and 20 days before infection (FIG. 6)) | Measured bacterial titer (Log CFU/g of bone) Test compound (S. aureus ATCC 13709; 15.8 mg/kg IV, 2 days prior to infection, 24 h postinfection) | bacterial titer compared with untreated group (S. aureus ATCC 13709; 32 mg/kg IV 7, 14, 21 and 28 days prior to infection (FIG. 7))
1 | COc1c(N2CCNC(C)C2)c(F)cc2c(=O)c(C(=O)OCC(=O)NC(P(=O)(O)O)P(=O)(O)O)cn(C3CC3)c12 (stereo not drawn) [Compound 54, (1,1-Bisphosphonomethylcarbamoyl)methyl 7-(3-methylpiperazin-1-yl)-1-cyclopropyl-6-fluoro-1,4-dihydro-8-methoxy-4-oxoquinoline-3-carboxylate] | rate deceleration | significant (p-value ≦0.0002) decrease in bacterial titer; also recorded: nearly sterile bone | 2.96 ± 0.69 Log CFU/g of bone | efficient prophylactic effect | – | – | –
2 | COc1c(N2C[C@@H]3CCCN[C@@H]3C2)c(F)cc2c(=O)c(C(=O)OCC(=O)NC(P(=O)(O)O)P(=O)(O)O)cn(C3CC3)c12 [Compound 52, (1,1-Bisphosphonomethylcarbamoyl)methyl 1-cyclopropyl-6-fluoro-1,4-dihydro-7-((4aS,7aS)-octahydropyrrolo[3,4-b]pyridin-6-yl)-8-methoxy-4-oxoquinoline-3-carboxylate] | fairly similar rates | – | – | efficient prophylactic effect | significant (p<0.05) decrease in bacterial titer | 2.29 ± 0.30 Log CFU/g of bone | significant decrease in bacterial titer
